Literature values, collected in paper PMC12901815 (Environmental Analysis, Health and Toxicology, 2025).

Settings: male Alderley Park rats, oral administration; cited from earlier work

## polyaminopropylbiguanide [PHMB]
  tissue distribution of radioactivity: the highest radioactivity occurred in adipose tissue, followed by kidneys and liver, without detectable brain accumulation
